Assay results reported in US20240366701A1, “EXTRACT OF MYROTHAMNUS SP FOR PROMOTING HAIR GROWTH” (Lubrizol Advanced Materials, Inc., priority 2021, published 2024).

How the values were obtained:
[1] = tested on: Human Epidermal Keratinocyte cells (HEK); test: In vitro proliferation assay on keratinocyte cells (PrestoBlue); format: cell-based; conditions: test concentration 10 (%, v/v), 24 h, negative control = 100.00
Experimental: Human Epidermal Keratinocyte cells (HEK) are grown to a density of 4500 cells/cm^2 in keratinocyte growth medium at 37° C. in 5% CO2 humidified air during 7 days. After this time, they are split and then seeded for treatment.
HEK are seeded at a density of 70000 cells/mL of culture medium in 96-well Cell Carrier black plates (PerkinElmer) in culture medium. After 24 hours incubation at 37° C. in 5% CO2 humidified air, medium is removed and fresh culture medium with dilutions of the test products. Cells treated with medium alone are used as negative control. Epidermal Growth Factor (EGF) is used as a positive control. After 24 hours incubation, live and dead cells are quantified with PrestoBlue® Cell Viability Reagent.
HEK quantification is quantified by fluorescence by using cell permeable resazurin-based solution PrestoBlue® from Thermo Fisher Scientific.
Stock solution of Example 1 and 2 are assayed in 3 independent experiments including 4 replicates in each experiment.

[2] = tested on: Human Umbilical Vein Endothelial cells (HUVEC); test: In vitro new blood vessel (tube-like structure) formation; format: cell-based; conditions: 5 ng/ml, 4 h, respect basal condition
Description: Hair follicles get nourishment from blood flow in the skin having hair. Optimal irrigation of hair follicle increases its nourishment and stimulates the generation of new hair and improves hair growth and strength. Compounds able to generate new blood vessels in the hair follicle are good candidates for the cosmetic treatment of eyelash growth and strength. In vitro assessment of new blood vessels formation involves measurement of the ability of endothelial cells to form three-dimensional tube-like structures. Human Umbilical Vein Endothelial cells (HUVEC) mediate specific connections with extracellular matrix components generating differential forces which induces morphological changes and migration of HUVEC, leading to the formation of tube-like structures. The aim of this study is to evaluate the efficacy of the compound of the invention to generate new blood vessel tubes by means of measuring the ability of endothelial cells to form three-dimensional tube-like structures.
A 96 well plate is pre-coated with cold Extracellular Matrix Solution (Angiogenesis Assay kit, PromoKine) and incubated for 1 hour at 37° C. After the incubation, HUVEC cells are seeded in pre-coated wells at a density of 15,000 cells/well. Immediately, cells are treated with the stock solution of Example 2 dissolved in medium achieving a final well concentration of 0.5% (v/v). Vascular endothelial growth factor (VEGF) is used as positive control at a final well concentration of 5 ng/ml and cells treated with medium alone are used as a basal control. Cells are treated for 4 hours at 37° C. in 5% CO2 humidified air and then are stained with Staining Dye (Angiogenesis Assay kit, PromoKine) according to the manufacturer's protocol. Briefly, cells are washed and then Staining Dye solution was added. After a 30 minutes incubation at 37° C. in 5% CO2 humidified air, fluorescence images are captured using Operetta® confocal microscope (PerkinElmer, Inc) and new tubes formation is evaluated by ImageJ software.
New blood vessel tube formation is evaluated by the measurement of different parameters in each image acquired. […] Afterwards, the software quantifies more complex structures: • Segment length: number of pixels of each segment detected. • Master segment number: number of segments delimited by junctions without branch connection. • Master junction number: number of junctions which link at least three master segments. • Number of meshes: number of elements delimited by segments or master segments.
To consider an increase in new blood vessel tube formation, more than one of the parameters measured needs to be increased.
Results herein are the different measured parameters expressed as percentage normalized by basal condition.

Substance	Cell growth MEAN normalized with respect to the negative control [1]	% of number of master junctions (Mean ± SEM) [2]	% of number of master segments (Mean ± SEM) [2]	% of number of meshes (Mean ± SEM) [2]	% of total segment length (Mean ± SEM) [2]
Positive control (EGF): Epidermal Growth Factor used as a positive control	94.41				
VEGF		183.1 ± 31.1%	196.5 ± 36.5%	288.6 ± 75.9%	160.1 ± 21.9%
